Blank lines part the entries; values can stand above or below the compound they belong to.
Experiments:
Thromboxane synthase = molecular target: T1, Thromboxane synthase (Homo sapiens, UniProt P24557); experiment: Human platelet thromboxane synthase assay; type: biochemical
T1 construct: Human Platelet Thromboxane Synthase Assay; from tissue; host or cells: human platelets
T1 sequence (P24557 1-533): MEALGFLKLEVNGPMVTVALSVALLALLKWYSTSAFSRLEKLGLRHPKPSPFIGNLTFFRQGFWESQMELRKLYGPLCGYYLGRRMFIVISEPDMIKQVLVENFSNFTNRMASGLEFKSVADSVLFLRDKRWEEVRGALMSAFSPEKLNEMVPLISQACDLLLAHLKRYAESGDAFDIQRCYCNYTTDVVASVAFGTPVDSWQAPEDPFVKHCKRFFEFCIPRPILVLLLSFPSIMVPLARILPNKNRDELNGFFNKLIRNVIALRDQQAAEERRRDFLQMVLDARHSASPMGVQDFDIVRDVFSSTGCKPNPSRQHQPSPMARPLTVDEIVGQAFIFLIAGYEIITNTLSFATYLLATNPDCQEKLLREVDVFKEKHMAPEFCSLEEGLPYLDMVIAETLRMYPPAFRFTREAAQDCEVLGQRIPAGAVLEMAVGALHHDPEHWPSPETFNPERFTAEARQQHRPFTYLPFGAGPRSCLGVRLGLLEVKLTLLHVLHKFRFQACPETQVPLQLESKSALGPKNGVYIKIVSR
Procedure: The compounds were tested for thromboxane synthase inhibition essentially as described by Borsch-Haubold A G, Pasquet S, Watson S P. (1998). Direct inhibition of cyclooxygenase-1 and -2 by the kinase inhibitors SB 203580 and PD 98059. […] 1. Imidazole derivatives. J Med. Chem. (10):1139-48 according to the following:
Pre-incubation time, temp: 15 minutes at 25° C. Incubation time, temp: 3 minutes at 25° C.
Incubation Buffer: 10 mM Tris-HCl, pH 7.4
Quantification Method: ETA quantification of TxB2

[1] = tested on: U-46619-induced platelet aggregation; experiment: TP receptor platelet aggregation, rabbit; type: cell-based, New Zealand Rabbit
Procedure: Thrombosis Research 33:277-288.
TP Receptor Platelet Aggregation—Rabbit:
New Zealand Rabbit (2.75±0.25 kg) platelet rich plasma
Assay: Inhibition of 1.5 μM U-46619-induced platelet aggregation Incubation Time, Temp: 5 minutes at 37° C. Incubation Buffer Trisodium Citrate (0.13 M)-treated platelet rich plasma
Time of Assessment: 5 minutes
Quantification Method Optical Density Change

[2] = tested on: arterial thrombosis in a mouse model; experiment: Arterial thrombosis in a mouse model (FeCl3, femoral artery); type: in vivo; conditions: mice
Procedure: The solutions are diluted 3.3-fold in saline and 100 μl/25 g is injected. Thus, the above-mentioned doses of 100 and 300 mg/kg of compound correspond to final doses of 30 and 100 mg/kg.
During the experiments, a soluble salt of the drug is provided (e.g., potassium salt of compound C), diluted in saline. Of this formulation, 100 μl/25 g is injected i.v. in the tail vein (dose of 100 mg/kg).
Solutions are injected (100 μl/25 g body weight) i.v. in the tail vein over 2 min to obtain doses of each compound of 30 mg/kg and 100 mg/kg. Aspirin is given the same way at a dose of 200 mg/kg. Clopidogrel is administered by oral gavage at a dose of 20 mg/kg at 6-7 hours prior to the experiment. The animals assigned to each group are matched for body weight. Mice are typically 8-10 weeks old males and are in a 100% Swiss genetic background.
The flow in each image is expressed as a percentage of that at the contralateral side, and data are averaged for all 120 images to determine total flow. The same analysis is performed for 10 min intervals (which gives essentially the same information as the area under the curve). […] Flow before treatment is recorded as 100%, and that in occluded arteries as 0%. At the end of the experiment, blood is collected on 0.01M citrate buffer by heart puncture for determination of blood cell counts. Plasma is prepared by centrifugation and stored at −20° C. for determination of drug levels.
Statistical analysis for differences between two groups is performed by non-parametric Student t-test. Occlusion times >30 min were considered equal to 30 min for statistical analysis. Significance is set at p<0.05.

KKA^y mice = experiment: In vivo effect on serum glucose and other parameters in KKA^y mice
Procedure: 52 male KKA^y mice are obtained commercially (e.g., from Clea Japan) at an age of 6 weeks and put on a high fat diet upon arrival. Individual mice were housed in IVC Type II cages during both the acclimatization and the experimental phase. Both food (high fat diet) and water are supplied ad libitum.
1 animal per cage. […] Lights on at 06:00 a.m. Temperature: 21-25° C. Relative humidity target range: 55-60%.
Mice were randomized into treatment groups according to their 4-h fasting blood glucose.
4 hours after the last administration, non-fasting conditions.
Gamma irradiated high fat diet is commercially available (e.g., Research Diets, Inc. New Brunswick, N.J. (Product # D12266BI)).
Blood is collected into heparin containing glass capillaries which are subsequently centrifuged in a “Haematokrit 24” centrifuge (Hettich) at 15′200×g for 10 minutes at room temperature to obtain the hematocrit value.
The following serum parameters are determined on a COBAS INTEGRA 800 auto analyzer (Roche Diagnostics, Switzerland) using the reagents and protocols provided by the supplier.
All measurements are made on Day 14 of administration, except for the food intake and body weight measurements that are made on Day 12.

[3] = molecular target: T2, Thromboxane receptor (TP) (Homo sapiens, UniProt P21731); experiment: TP receptor radioligand binding; conditions: Human recombinant HEK-293 cells
T2 construct: expressed in transfected cells; host or cells: HEK-293 cells
T2 sequence (P21731 1-343): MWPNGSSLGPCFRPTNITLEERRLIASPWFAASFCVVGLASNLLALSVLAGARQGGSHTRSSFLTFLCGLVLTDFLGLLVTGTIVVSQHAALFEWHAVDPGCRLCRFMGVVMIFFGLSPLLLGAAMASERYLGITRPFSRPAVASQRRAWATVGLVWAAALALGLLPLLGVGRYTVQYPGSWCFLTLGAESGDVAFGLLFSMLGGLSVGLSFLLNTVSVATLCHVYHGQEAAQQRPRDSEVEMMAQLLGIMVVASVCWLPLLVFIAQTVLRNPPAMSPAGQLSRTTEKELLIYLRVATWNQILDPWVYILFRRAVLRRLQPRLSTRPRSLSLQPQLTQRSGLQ
Procedure: The compounds were tested on radioligand binding assays for thromboxane receptor binding essentially as described by Hedberg et al. (1988) J. Pharmacol. Exp. Ther. 245:786-792 and Saussy et al. (1986) J. Biol. Chem. 261: 3025-3029 according to the following:
TP Receptor Radioligand Binding Studies:
Human recombinant HEK-293 cells,
Incubation Time, Temp: 30 minutes at 25° C.
Incubation Buffer: 50 mM Tris-HCl, pH 7.4, 154 mM NaCl
Non-Specific Ligand: 1 μM SQ-29548
The data were transformed to semi-log and then analysed using non-linear regression to a four-parameter dose-response curve Y=Bottom+(Top−Bottom)/(1+10̂((LogEC50−X)*HillSlope)) using the log(agonist) vs. response—Variable slope function of GraphPad Prism software (http://graphpad.com/help/prism5/prism5help.html?usingnonlinear_regression_step_by_s.htm).

[4] = 14-day oral gavage BID, dose not given
[5] = 53 mg/kg BID oral gavage 14 days, high fat diet, Day 14

Compound: CC(=O)Oc1ccccc1C(=O)O [Aspirin]
- Occlusion time ([2]; 200 mg/kg i.v.): has no effect on the occlusion time
- Total blood flow ([2]; 200 mg/kg i.v.): has no significant effect on the total blood flow

Compound: COC(=O)[C@H](c1ccccc1Cl)N1CCc2sccc2C1 [Clopidogrel]
- Total blood flow ([2]; 20 mg/kg oral gavage 6-7 hours prior): significantly improved total blood flow

Compound: COc1ccccc1[C@@H]1O[C@H](c2ccccc2Cl)OC[C@@H]1C/C=C\CCC(=O)O [Compound E, (Z)-6-((2R,4R,5S)-2-(2-chlorophenyl)-4-(2-methoxyphenyl)-1,3-dioxan-5-yl)hex-4-enoic acid, reference compound]
- inhibition at 10 µM ([3]; 5 nM [3H] SQ-29548): 85%
- inhibition at 30 µM (Thromboxane synthase; at 30 μM): 52%

Compound: CN(CCOc1ccc(CC2SC(=O)NC2=O)cc1)c1ccccn1 (stereo not shown) [Rosiglitazone, reference compound]
- Heart weight (KKA^y mice; 5 mg/kg BID oral gavage 14 days, high fat diet, Day 14): 226.2 ± 6.9 mg
- Heart weight (KKA^y mice; 5 mg/kg BID oral gavage 14 days, high fat diet, Day 14, listed as rosiglitazone): increased

Now from value to compound, other results behind:

- inhibition at 5 µM (Thromboxane synthase; at 5 μM): 85%
- Heart weight (KKA^y mice; [4]): has no effect on heart weight
Compound: Cc1ccc2nc(Cl)c([C@H]3OC[C@@H](C/C=C\CCC(=O)O)[C@@H](c4ccccc4O)O3)cc2c1 (racemic) [Compound 13, (Z)-6-(2-(2-Chloro-6-methyl-quinolin-3-yl)-4-(2-hydroxyphenyl)-1,3-dioxan-5-yl)hex-4-enoic acid]
- Inhibition of thromboxane synthase (in words) (Thromboxane synthase): potent inhibitors of thromboxane synthase
- Inhibition of platelet aggregation (in words) [1]: potent inhibitors of platelet aggregation
- inhibition at 10 µM ([1]; Oryctolagus cuniculus, at 10 μM, 1.5 μM U-46619, platelet rich plasma): 100%
- Occlusion time ([2]; dose not given): prolongs the occlusion time
- Total blood flow ([2]; dose not given): improves total blood flow
- FFA (KKA^y mice; [4]): decreases the FFA
- HbA1c levels (KKA^y mice; [4]): decreased
- Body weight (KKA^y mice; oral gavage BID, dose not given): do not alter body weight

- IC50 ([3]; 5 nM [3H] SQ-29548): 88.9 nM
- Ki ([3]; 5 nM [3H] SQ-29548): 58 nM
- inhibition at 1 µM ([3]; at 1 μM, 5 nM [3H] SQ-29548): 99%
- IC50 (Thromboxane synthase): 365 nM
- inhibition at 1 µM (Thromboxane synthase; at 1 μM): 67%
Compound: O=C(O)CC/C=C\C[C@@H]1CO[C@H](c2coc3ccc(Cl)cc3c2=O)O[C@@H]1c1ccccc1O (single isomer, unassigned) [Compound 3-1]
- Binding to the TP receptor (comparison of enantiomers) [3]: binds with higher affinity than enantiomer 3-2

- IC50 ([3]; 5 nM [3H] SQ-29548): 1680 nM
- Ki ([3]; 5 nM [3H] SQ-29548): 1100 nM
- inhibition at 10 µM ([3]; 5 nM [3H] SQ-29548): 93%
- IC50 (Thromboxane synthase): > 100000 nM
- inhibition at 100 µM (Thromboxane synthase; at 100 μM): 37%
Compound: O=C(O)CC/C=C\C[C@H]1CO[C@@H](c2coc3ccc(Cl)cc3c2=O)O[C@H]1c1ccccc1O (single isomer, unassigned) [Compound 3-2]

- Heart weight (KKA^y mice; [5]): has no effect on heart weight
Compound: O=C(O)CC/C=C\C[C@@H]1CO[C@H](c2ccccc2Cl)O[C@@H]1c1ccccc1O [Compound C, (Z)-6-((2S,4S,5R)-2-(2-chlorophenyl)-4-(2-hydroxyphenyl)-1,3-dioxan-5-yl)hex-4-enoic acid, reference compound]
- Occlusion time ([2]; 30 mg/kg in vehicle i.v.): slightly prolongs the occlusion time as compared to aspirin (p=0.024), but has no effect as compared to vehicle
- Total blood flow ([2]; 30 mg/kg in vehicle i.v.): has no effect on total blood flow
- FFA (KKA^y mice; [5]): decreases the FFA
- HbA1C (KKA^y mice; [5]): decreased
- Serum Glucose (KKA^y mice; [5]): decreased
- Body weight (KKA^y mice; 53 mg/kg BID oral gavage, high fat diet, Day 12): do not alter body weight

- IC50 ([3]; 5 nM [3H] SQ-29548): 23.4 nM
- Ki ([3]; 5 nM [3H] SQ-29548): 15.3 nM
- inhibition at 0.3 µM ([3]; at 0.3 μM, 5 nM [3H] SQ-29548): 96%
- IC50 (Thromboxane synthase): 20400 nM
- Thromboxane synthase Human platelet Inhibition (%) (Thromboxane synthase; at 30 μM): 62 @ 30 μM %
Compound: COc1ccccc1[C@@H]1O[C@H](c2ccccc2Cl)OC[C@@H]1C/C=C\CCC(=O)O [Compound F, (Z)-6-((2R,4R,5S)-2-(2-chlorophenyl)-4-(2-methoxyphenyl)-1,3-dioxan-5-yl)hex-4-enoic acid, reference compound]

— patent publication US20130197030A1, “Substituted 1,3-Dioxanes and There Uses” (Evolva Sa, priority 2007, published 2013)
